From PubChem BioAssay AID296 (DTP/NCI, 2004)
Several values for one entry are separate records, joined by “and”; a condition that tells them apart may be missing. Equal values may be shown once. Inconclusive results are not listed.

System: MX-1 breast xenograft, nude mice, tumor weight T/C
Assay: NCI In Vivo Anticancer Drug Screen. Data for tumor model Human Mammary Carcinoma MX-1 Xenograft (intrarenal inoculation) in NU/NU Swiss (nude) mice
Settings: endpoint: mean tumor weight change, higher = larger tumour
Outline: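 Tumor-bearing mice were treated with test compound alongside a vehicle-treated control group. Survival or tumor size was measured, and activity is expressed as the treated-group value divided by the control-group value.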

[1] = dose: 150.0 mg/kg/injection, schedule: Q04DX003 (sc), vehicle: saline with Tween-80
[2] = dose: 300.0 mg/kg/injection, schedule: Q04DX003 (sc), vehicle: saline with Tween-80
[3] = dose: 150.0 mg/kg/injection, schedule: Q04DX003 (ip), vehicle: saline with Tween-80
[4] = dose: 100.0 mg/kg/injection, schedule: Q01DX010 (sc), vehicle: Klucel (hydroxypropylcellulose) (HPC)
[5] = dose: 200.0 mg/kg/injection, schedule: Q01DX010 (sc), vehicle: Klucel (hydroxypropylcellulose) (HPC)
[6] = dose: 100.0 mg/kg/injection, schedule: Q01DX010 (sc), vehicle: saline with Tween-80
[7] = dose: 200.0 mg/kg/injection, schedule: Q01DX010 (sc), vehicle: saline with Tween-80
[8] = dose: 300.0 mg/kg/injection, schedule: Q04DX003 (sc), vehicle: Klucel (hydroxypropylcellulose) (HPC)
[9] = dose: 600.0 mg/kg/injection, schedule: Q04DX003 (sc), vehicle: Klucel (hydroxypropylcellulose) (HPC)
[10] = dose: 1200.0 mg/kg/injection, schedule: Q04DX003 (sc), vehicle: Klucel (hydroxypropylcellulose) (HPC)
[11] = dose: 2400.0 mg/kg/injection, schedule: Q04DX003 (sc), vehicle: Klucel (hydroxypropylcellulose) (HPC)
[12] = dose: 25.0 mg/kg/injection, schedule: Q01DX010 (sc), vehicle: saline with Tween-80
[13] = dose: 600.0 mg/kg/injection, schedule: Q04DX003 (sc), vehicle: saline with Tween-80
[14] = dose: 1200.0 mg/kg/injection, schedule: Q04DX003 (sc), vehicle: saline with Tween-80

## c1ccc([C@H]2CN3CCSC3=N2)cc1
dose: 15.0 mg/kg/injection, schedule: Q04DX003 (sc), vehicle: saline
  T/C: 80 % of control
dose: 30.0 mg/kg/injection, schedule: Q04DX003 (sc), vehicle: saline
  T/C: 71 % of control
dose: 60.0 mg/kg/injection, schedule: Q04DX003 (sc), vehicle: saline
  T/C: 75 % of control

## Nc1nnc[se]1
dose: 100.0 mg/kg/injection, schedule: Q04DX003 (sc), vehicle: saline with Tween-80
  T/C: 54 % of control
dose: 1600.0 mg/kg/injection, schedule: Q04DX003 (sc), vehicle: saline with Tween-80
  T/C: 74 % of control

## CS(=O)(=O)c1ncc(Br)cn1
dose: 25.0 mg/kg/injection, schedule: Q01DX010 (sc), vehicle: suspension in saline
  T/C: 79 % of control
dose: 75.0 mg/kg/injection, schedule: Q04DX003 (sc), vehicle: saline with Tween-80
  T/C: 98 % of control
[1]
  T/C: 121 % of control
[2]
  T/C: 119 % of control

## C1OC1C1CO1 (configuration not stated)
dose: 12.5 mg/kg/injection, schedule: Q01DX010 (sc), vehicle: saline
  T/C: 4 % of control and 28 % of control
dose: 12.5 mg/kg/injection, schedule: Q04DX003 (sc), vehicle: suspension in saline
  T/C: 63 % of control and 74 % of control
dose: 25.0 mg/kg/injection, schedule: Q01DX010 (sc), vehicle: saline
  T/C: -53 % of control and -47 % of control
dose: 25.0 mg/kg/injection, schedule: Q04DX003 (sc), vehicle: suspension in saline
  T/C: 37 % of control and 44 % of control
dose: 50.0 mg/kg/injection, schedule: Q01DX010 (sc), vehicle: saline
  T/C: -90 % of control and -85 % of control
dose: 50.0 mg/kg/injection, schedule: Q04DX003 (sc), vehicle: suspension in saline
  T/C: 1 % of control and 4 % of control

## CC1/C=C/C=C/CC/C=C/C=C/C=C/C=C/C(OC2OC(C)C(O)C(N)C2O)CC2OC(CC(O)C(O)CCC(O)CC(O)CC(O)CC(=O)OC(C)C(C)C1O)CC(O)C2C(=O)O (configuration not stated)
[3]
  T/C: 59 % of control
dose: 300.0 mg/kg/injection, schedule: Q04DX003 (ip), vehicle: saline with Tween-80
  T/C: 55 % of control

## ClCCCCCCCCCCc1ccccc1
[4]
  T/C: 89 % of control
[5]
  T/C: 44 % of control
dose: 400.0 mg/kg/injection, schedule: Q01DX010 (sc), vehicle: Klucel (hydroxypropylcellulose) (HPC)
  T/C: 116 % of control
dose: 800.0 mg/kg/injection, schedule: Q01DX010 (sc), vehicle: Klucel (hydroxypropylcellulose) (HPC)
  T/C: 93 % of control

## CCO/C=C1\SC(=S)N(c2ccccc2C)C1=O
[6]
  T/C: 121 % of control
[7]
  T/C: 90 % of control
dose: 800.0 mg/kg/injection, schedule: Q01DX010 (sc), vehicle: saline with Tween-80
  T/C: 111 % of control

## CN(Cc1cnc2nc(N)nc(N)c2n1)c1ccc(C(=O)N[C@@H](CCC(=O)O)C(=O)O)cc1
dose: 0.5 mg/kg/injection, schedule: Q01DX010 (sc), vehicle: sodium bicarbonate
  T/C: 86 % of control
dose: 1.0 mg/kg/injection, schedule: Q01DX010 (sc), vehicle: sodium bicarbonate
  T/C: 175 % of control

## CCOC(=O)CNC(=O)Sc1ccc(C(C)(C)C)cc1
[8]
  T/C: 123 % of control
[9]
  T/C: 88 % of control
[10]
  T/C: 81 % of control
[11]
  T/C: 77 % of control

## OCCO
dose: 8.0 % in 0.5 ml injection vol, schedule: Q04DX003 (sc), vehicle: water
  T/C: 69 % of control
dose: 16.0 % in 0.5 ml injection vol, schedule: Q04DX003 (sc), vehicle: water
  T/C: 87 % of control

## ClCCCN1CCN(CCCCl)CC1
dose: 75.0 mg/kg/injection, schedule: Q04DX003 (sc), vehicle: saline + alcohol
  T/C: 113 % of control
dose: 150.0 mg/kg/injection, schedule: Q04DX003 (sc), vehicle: saline + alcohol
  T/C: 28 % of control

## NC(=O)Oc1cccc(OC(N)=O)c1
dose: 300.0 mg/kg/injection, schedule: Q04DX003 (sc), vehicle: water
  T/C: 68 % of control
dose: 600.0 mg/kg/injection, schedule: Q04DX003 (sc), vehicle: water
  T/C: 101 % of control
dose: 1200.0 mg/kg/injection, schedule: Q04DX003 (sc), vehicle: water
  T/C: 53 % of control

## O=CC(CO)CC(C=O)n1cnc2c(=O)[nH]cnc21 (configuration not stated)
dose: 150.0 mg/kg/injection, schedule: Q04DX003 (ip), vehicle: saline
  T/C: 62 % of control
dose: 300.0 mg/kg/injection, schedule: Q04DX003 (ip), vehicle: saline
  T/C: 57 % of control
dose: 600.0 mg/kg/injection, schedule: Q04DX003 (ip), vehicle: saline
  T/C: 30 % of control

## Nc1n[nH]c(N)n1
dose: 200.0 mg/kg/injection, schedule: Q01DX010 (sc), vehicle: saline
  T/C: 92 % of control
dose: 400.0 mg/kg/injection, schedule: Q01DX010 (sc), vehicle: saline
  T/C: 94 % of control
dose: 800.0 mg/kg/injection, schedule: Q01DX010 (sc), vehicle: saline
  T/C: 111 % of control

## COC1C(O)C(C)OC(OC2C(Oc3cccc4c(O)c5c(=O)oc6ccc(C)c7c(=O)oc(c34)c5c67)OC(C)C(O)C2O)C1O (configuration not stated)
[8]
  T/C: 90 % of control
[9]
  T/C: 94 % of control
[10]
  T/C: 70 % of control
[11]
  T/C: 49 % of control

## C[C@]12CCC(=O)C=C1CC[C@@H]1[C@@H]2C(=O)C[C@@]2(C)[C@H]1CC[C@]2(O)C(=O)CO
[8]
  T/C: 108 % of control
[9]
  T/C: 45 % of control

## N#Cc1nc(C#N)c(Sc2ccccc2)c(Sc2ccccc2)c1Sc1ccccc1
[12]
  T/C: 57 % of control
[6]
  T/C: 24 % of control
[7]
  T/C: 80 % of control

## CC(=O)NC(C=O)OCC=O (configuration not stated)
dose: 100.0 mg/kg/injection, schedule: Q04DX003 (sc), vehicle: water
  T/C: 108 % of control
dose: 200.0 mg/kg/injection, schedule: Q04DX003 (sc), vehicle: water
  T/C: 72 % of control
dose: 400.0 mg/kg/injection, schedule: Q04DX003 (sc), vehicle: water
  T/C: 91 % of control

## CS(=O)(=O)OCCC(=O)N1CCN(C(=O)CCOS(C)(=O)=O)CC1
dose: 300.0 mg/kg/injection, schedule: Q04DX003 (sc), vehicle: suspension in saline
  T/C: 8 % of control
dose: 600.0 mg/kg/injection, schedule: Q04DX003 (sc), vehicle: suspension in saline
  T/C: -100 % of control
dose: 1200.0 mg/kg/injection, schedule: Q04DX003 (sc), vehicle: suspension in saline
  T/C: -100 % of control

## CS(=O)(=O)OCCCCOS(C)(=O)=O
dose: 6.25 mg/kg/injection, schedule: Q01DX010 (sc), vehicle: saline with Tween-80
  T/C: 114 % of control
dose: 12.5 mg/kg/injection, schedule: Q01DX010 (sc), vehicle: saline with Tween-80
  T/C: 68 % of control
[12]
  T/C: 49 % of control

## Nc1ccccc1N
dose: 25.0 mg/kg/injection, schedule: Q01DX010 (sc), vehicle: Klucel (hydroxypropylcellulose) (HPC)
  T/C: 103 % of control
[4]
  T/C: 80 % of control and 211 % of control
[5]
  T/C: 34 % of control and 47 % of control

## Oc1c(Cl)cc(C(c2cc(Cl)c(O)c(Cl)c2)C(c2cc(Cl)c(O)c(Cl)c2)c2cc(Cl)c(O)c(Cl)c2)cc1Cl
[8]
  T/C: 108 % of control
[9]
  T/C: 79 % of control
[10]
  T/C: 73 % of control
[11]
  T/C: 88 % of control

## Cc1cc(NCCCN(C)C)c2ccc3c(ccc4c(NCCCN(C)C)cc(C)nc43)c2n1
dose: 9.38 mg/kg/injection, schedule: Q04DX003 (sc), vehicle: saline with Tween-80
  T/C: 77 % of control
dose: 18.75 mg/kg/injection, schedule: Q04DX003 (sc), vehicle: saline with Tween-80
  T/C: 65 % of control

## C1OC1CO[C@@H]1CO[C@H]2[C@@H]1OC[C@H]2OCC1CO1 (some centres not stated)
dose: 50.0 mg/kg/injection, schedule: Q01DX010 (sc), vehicle: saline with Tween-80
  T/C: 45 % of control
[6]
  T/C: 112 % of control
[7]
  T/C: 24 % of control

## NS(=O)(=O)OCCCCCCCOS(N)(=O)=O
[3]
  T/C: -97 % of control

## CC(=O)Nc1ccc(O)c(O)c1
[2]
  T/C: 75 % of control
[13]
  T/C: 52 % of control
[14]
  T/C: 47 % of control

## N#C[C@H](OC1OC(COC2OC(CO)C(O)C(O)C2O)C(O)C(O)C1O)c1ccccc1 (some centres not stated)
dose: 450.0 mg/kg/injection, schedule: Q04DX003 (sc), vehicle: saline
  T/C: 63 % of control
dose: 900.0 mg/kg/injection, schedule: Q04DX003 (sc), vehicle: saline
  T/C: 69 % of control
dose: 1800.0 mg/kg/injection, schedule: Q04DX003 (sc), vehicle: saline
  T/C: 70 % of control
dose: 3600.0 mg/kg/injection, schedule: Q04DX003 (sc), vehicle: saline
  T/C: 67 % of control

## COc1ccc([I+]c2cccc(Cl)c2)cc1Cl
[1]
  T/C: 114 % of control
[2]
  T/C: 100 % of control
[13]
  T/C: 84 % of control
[14]
  T/C: 41 % of control

## CC(CN1CC(=O)NC(=O)C1)N1CC(=O)NC(=O)C1 (configuration not stated)
dose: 150.0 mg/kg/injection, schedule: Q04DX003 (sc), vehicle: Klucel (hydroxypropylcellulose) (HPC)
  T/C: 92 % of control
[8]
  T/C: 64 % of control
